Results from US20250281479A1, “TREATMENT OF CAVERNOUS ANGIOMAS WITH A 4-SUBSTITUTED PIPERIDINE DERIVATIVE” (Neurelis, Inc., priority 2024, published 2025).
Where two headings read alike, the source gives them in different places.

Legend:
plasma protein binding = type: in vitro ADME, mouse; conditions: range over mouse, rat, dog, monkey, minipig and human plasma; read-out: % free drug
Procedure: (§1) Exposure to NRL-2017 was similar or greater (up to 5-fold) than that to NRL-1049 in rats when dosed once a day (QD). In monkeys, exposure to NRL-2017 was also greater (up to 33-fold) than that to NRL-1049. When rats were dosed twice a day (BID) for 14 days, there was a decrease in formation of NRL-2017 with exposure to NRL-2017 lower than that of NRL-1049 (ratio as low as 0.06). […] NRL-1049 bound to human serum albumin and human alpha1-acid glycoprotein. […] There was also inhibition of P-glycoprotein (P-gp) (only CACO-2 cells), organic anion transporting polypeptides (OATP) OATP1B1, OATP1B3 and OAT3 (IC50, >100 μM), but no effect on P-gp (MDCK2 cells), breast cancer resistance protein (BCRP), bile salt export pump (BSEP), or MATE2-K. NRL-1049 is a substrate for P-gp, not BCRP. […] This conclusion will be revisited when human pharmacokinetic (PK) data becomes available.

plasma protein = plasma protein binding; type: in vitro ADME, mouse; conditions: mouse, rat, dog, monkey, minipig and human plasma
Procedure: as §1

[1] = first-in-human single ascending dose and food-effect study, plasma pharmacokinetics; type: in vivo; conditions: for Vd/F: read-out: Vz/F
Excerpt: This was a first-in-human, single center, randomized, double-blind, placebo-controlled, single ascending dose (SAD) study, including a food-effect assessment, in healthy male and female subjects. Up to 44 subjects were included in the study.
The study consisted of 4 sequential cohorts of 8 subjects each (6 active and 2 placebo), randomly assigned to receive a single oral dose of NRL-1049 or matching-placebo under fasting state on Day 1 (See Table 2). In each cohort, a sentinel group of 2 subjects (1 active and 1 placebo) were dosed at least 24 hours prior to enrolling the remaining subjects of the cohort, contingent on the safety profile observed during sentinel dosing, as defined by medical judgment.
Subjects were admitted to the clinical research unit (CRU) on Day −1. On Day 1, following an overnight fast, subjects received a single oral dose of their assigned study treatment. Safety, PK, and exploratory biomarker assessments were performed prior to dosing and at assigned time points during study confinement. Subjects were permitted to leave the CRU following the completion of the 48-hour PK postdose sampling and safety assessments. A safety follow-up phone call was performed on Day 8 (±1 day).
Furthermore, a food-effect assessment was integrated into Cohort 3, in which a single oral 150 mg dose of NRL-1049 or placebo was administered to 12 subjects (10 active and 2 placebo) under fed state in Period 2 (refer to schedule of food-effect Cohort 3 in Table 3). After completion of Period 1 and a washout period of at least 14 days, Cohort 3 subjects repeated the screening procedures to ensure they still met the inclusion and exclusion criteria prior to readmission to the CRU for Period 2. Subjects dosed in Period 1 and who returned for Period 2 (a maximum of 6 active and 2 placebo) were administered the same single oral dose in Period 2 under fed state. In addition, at least 4 new subjects were enrolled in Period 2 only, in order to dose a total of 12 subjects (10 active and 2 placebo), in a 1:1 ratio of male to female. If a subject dosed in Period 1 was unable to return for Period 2, a new subject was enrolled to ensure dosing a total of 12 subjects in Period 2. Newly enrolled subjects only received the study drug in the fed state, and as such were not required to undergo Period 1 activities. There was no sentinel approach in Period 2.
Study drugs (NRL-1049 or placebo) were administered in the morning. The date and time of each dose was recorded. For each subject, all scheduled postdose activities and assessments were performed relative to the time of study drug administration. An oral dose of the assigned formulation was administered to subjects with approximately 240 mL of water at ambient temperature. The capsule(s) were swallowed whole and not chewed or broken. Food and fluid intake other than water were controlled for each confinement period and all subjects. In Cohorts 1, 2, 3 (Period 1), and 4, water was permitted as needed except from 1 hour predose until 1 hour after dosing. In Period 2 of Cohort 3, water was permitted as needed throughout the confinement period. For cohorts under fasting state, subjects were required to fast (abstain from food) for at least 10 hours prior to dosing and for at least 4 hours following dosing. In Period 2 of the food-effect cohort only, following an overnight fast of at least 10 hours, subjects received a standardized high-fat, high-calorie meal 30 minutes prior to study drug administration. An example meal would consist of 2 eggs fried in butter, 2 strips of bacon, 2 slices of toast with butter, 4 ounces of hash brown potatoes, and 8 ounces of whole milk. […] Subjects had to eat the total content of this meal in 30 minutes or less. For all cohorts, a standardized lunch was served at least 4 hours after dosing. A supper, light snack, and other meals were served at appropriate times thereafter, but not until after 9 hours postdose. […]

[2] = 150 mg NRL-1049, fed compared to fasting state
[3] = 25 to 250 mg NRL-1049, fasting conditions
[4] = plasma NRL-1049, mean, 25 mg NRL-1049 single oral, fasting, Cohort 1, N = 6
[5] = plasma NRL-1049, mean, 75 mg NRL-1049 single oral, fasting, Cohort 2, N = 6
[6] = plasma NRL-1049, mean, 150 mg NRL-1049 single oral, Fed, Cohort 3, N = 10
[7] = plasma NRL-1049, mean, 250 mg NRL-1049 single oral, fasting, Cohort 4, N = 6

C[C@@H](N)C1CCN(S(=O)(=O)c2cccc3cnccc23)CC1 [NRL-1049]
fraction unbound (plasma protein binding): 0.541 to 0.706 | plasma protein binding (plasma protein): low to moderate | food effect on mean AUC0-T and AUCinf [1, 2]: greater in the fed state | food effect on mean Cmax [1, 2]: decreased | food effect on mean apparent clearance [1, 2]: greater in the fasting state | food effect on mean apparent volume of distribution [1, 2]: greater in the fed state | food effect on mean elimination half-life [1, 2]: slightly increased | time up to which mean concentrations were quantifiable ([1]; 25-mg dose, fasting state): up to 2 hours | manner of increase of AUC0-T with dose [1, 3]: greater than dose proportional | manner of increase of AUC0-Tmax with dose [1, 3]: dose proportional | manner of increase of AUCinf with dose [1, 3]: greater than dose proportional | manner of increase of Cmax with dose [1, 3]: dose proportional | time up to which mean concentrations were quantifiable ([1]; 75-mg dose, fasting state): ≤ 4 h | time up to which mean concentrations were quantifiable ([1]; 150- and 250-mg doses, fasting state): ≤ 8 h | time up to which mean concentrations were quantifiable ([1]; 150-mg dose, fed state): up to 12 hours | AUC(0-t) ([1]; both sexes, human, plasma, oral, range over dose range 25 to 250 mg NRL-1049, fasting state, read-out: mean AUC0-T): 3.03 to 76.5 ng·h/mL | AUC ([1]; both sexes, human, plasma, oral, range over dose range 25 to 250 mg NRL-1049, fasting state, read-out: mean AUC0-Tmax): 1.26 to 8.73 ng·h/mL | AUC(0-inf) ([1]; both sexes, human, plasma, oral, range over dose range 25 to 250 mg NRL-1049, fasting state, read-out: mean AUCinf): 3.81 to 78.2 ng·h/mL | Cmax ([1]; both sexes, human, plasma, oral, range over dose range 25 to 250 mg NRL-1049, fasting state, read-out: mean Cmax): 3.66 to 58 ng/mL | half-life ([1]; both sexes, human, plasma, oral, range over the dose groups 25 to 250 mg NRL-1049, fasting state, read-out: mean elimination half-life): 31.2 to 75.6 min | AUC(0-t) ([1]; both sexes, human, plasma, po, 25 mg, plasma NRL-1049, mean, 25 mg NRL-1049 single oral, fasting, Cohort 1, N = 6, read-out: AUC0-T): 3.03 ng·h/mL | AUC ([1]; both sexes, human, plasma, po, 25 mg, plasma NRL-1049, mean, 25 mg NRL-1049 single oral, fasting, Cohort 1, N = 6, read-out: AUC0-Tmax): 1.26 ng·h/mL | AUC(0-inf) ([1]; both sexes, human, plasma, po, 25 mg, plasma NRL-1049, mean, 25 mg NRL-1049 single oral, fasting, Cohort 1, N = 6, read-out: AUCinf): 3.81 ng·h/mL | Cmax ([1]; both sexes, human, plasma, po, 25 mg, plasma NRL-1049, mean, 25 mg NRL-1049 single oral, fasting, Cohort 1, N = 6, read-out: Cmax): 3.66 ng/mL | Vd/F ([1]; both sexes, human, plasma, po, 25 mg, plasma NRL-1049, mean, 25 mg NRL-1049 single oral, fasting, Cohort 1, N = 6): 5500 L | Tmax ([1]; both sexes, human, plasma, po, 25 mg, plasma NRL-1049, median, 25 mg NRL-1049 single oral, fasting, Cohort 1, N = 6, read-out: Tmax): 45 min | AUC(0-t) ([1]; both sexes, human, plasma, po, 75 mg, plasma NRL-1049, mean, 75 mg NRL-1049 single oral, fasting, Cohort 2, N = 6, read-out: AUC0-T): 13.8 ng·h/mL | AUC ([1]; both sexes, human, plasma, po, 75 mg, plasma NRL-1049, mean, 75 mg NRL-1049 single oral, fasting, Cohort 2, N = 6, read-out: AUC0-Tmax): 2.88 ng·h/mL | AUC(0-inf) ([1]; both sexes, human, plasma, po, 75 mg, plasma NRL-1049, mean, 75 mg NRL-1049 single oral, fasting, Cohort 2, N = 6, read-out: AUCinf): 15.2 ng·h/mL | Cmax ([1]; both sexes, human, plasma, po, 75 mg, plasma NRL-1049, mean, 75 mg NRL-1049 single oral, fasting, Cohort 2, N = 6, read-out: Cmax): 16.9 ng/mL | Vd/F ([1]; both sexes, human, plasma, po, 75 mg, plasma NRL-1049, mean, 75 mg NRL-1049 single oral, fasting, Cohort 2, N = 6): 6020 L | Tmax ([1]; both sexes, human, plasma, po, 75 mg, plasma NRL-1049, median, 75 mg NRL-1049 single oral, fasting, Cohort 2, N = 6, read-out: Tmax): 30 min | AUC(0-t) ([1]; both sexes, human, plasma, po, 150 mg, plasma NRL-1049, mean, 150 mg NRL-1049 single oral, Fasted, Cohort 3, N = 6, read-out: AUC0-T): 34.8 ng·h/mL | AUC ([1]; both sexes, human, plasma, po, 150 mg, plasma NRL-1049, mean, 150 mg NRL-1049 single oral, Fasted, Cohort 3, N = 6, read-out: AUC0-Tmax): 6.16 ng·h/mL | AUC(0-inf) ([1]; both sexes, human, plasma, po, 150 mg, plasma NRL-1049, mean, 150 mg NRL-1049 single oral, Fasted, Cohort 3, N = 6, read-out: AUCinf): 36.2 ng·h/mL | Cmax ([1]; both sexes, human, plasma, po, 150 mg, plasma NRL-1049, mean, 150 mg NRL-1049 single oral, Fasted, Cohort 3, N = 6, read-out: Cmax): 34.9 ng/mL | Vd/F ([1]; both sexes, human, plasma, po, 150 mg, plasma NRL-1049, mean, 150 mg NRL-1049 single oral, Fasted, Cohort 3, N = 6): 10800 L | AUC(0-t) ([1]; both sexes, human, plasma, po, 150 mg, plasma NRL-1049, mean, 150 mg NRL-1049 single oral, Fed, Cohort 3, N = 10, read-out: AUC0-T): 42 ng·h/mL | AUC ([1]; both sexes, human, plasma, po, 150 mg, plasma NRL-1049, mean, 150 mg NRL-1049 single oral, Fed, Cohort 3, N = 10, read-out: AUC0-Tmax): 6.14 ng·h/mL | AUC(0-inf) ([1]; both sexes, human, plasma, po, 150 mg, plasma NRL-1049, mean, 150 mg NRL-1049 single oral, Fed, Cohort 3, N = 10, read-out: AUCinf): 44.7 ng·h/mL | Cmax ([1]; both sexes, human, plasma, po, 150 mg, plasma NRL-1049, mean, 150 mg NRL-1049 single oral, Fed, Cohort 3, N = 10, read-out: Cmax): 18.5 ng/mL | Vd/F ([1]; both sexes, human, plasma, po, 150 mg, plasma NRL-1049, mean, 150 mg NRL-1049 single oral, Fed, Cohort 3, N = 10): 10800 L | Tmax ([1]; both sexes, human, plasma, po, 150 mg, plasma NRL-1049, median, 150 mg NRL-1049 single oral, Fasted, Cohort 3, N = 6, read-out: Tmax): 30 min | Tmax ([1]; both sexes, human, plasma, po, 150 mg, plasma NRL-1049, median, 150 mg NRL-1049 single oral, Fed, Cohort 3, N = 10, read-out: Tmax): 52.8 min | AUC(0-t) ([1]; both sexes, human, plasma, po, 250 mg, plasma NRL-1049, mean, 250 mg NRL-1049 single oral, fasting, Cohort 4, N = 6, read-out: AUC0-T): 76.5 ng·h/mL | AUC ([1]; both sexes, human, plasma, po, 250 mg, plasma NRL-1049, mean, 250 mg NRL-1049 single oral, fasting, Cohort 4, N = 6, read-out: AUC0-Tmax): 8.73 ng·h/mL | AUC(0-inf) ([1]; both sexes, human, plasma, po, 250 mg, plasma NRL-1049, mean, 250 mg NRL-1049 single oral, fasting, Cohort 4, N = 6, read-out: AUCinf): 78.2 ng·h/mL | Cmax ([1]; both sexes, human, plasma, po, 250 mg, plasma NRL-1049, mean, 250 mg NRL-1049 single oral, fasting, Cohort 4, N = 6, read-out: Cmax): 58 ng/mL | Vd/F ([1]; both sexes, human, plasma, po, 250 mg, plasma NRL-1049, mean, 250 mg NRL-1049 single oral, fasting, Cohort 4, N = 6): 4940 L | Tmax ([1]; both sexes, human, plasma, po, 250 mg, plasma NRL-1049, median, 250 mg NRL-1049 single oral, fasting, Cohort 4, N = 6, read-out: Tmax): 30 min | Tmax ([1]; both sexes, human, plasma, po, range over single oral doses of 25 to 250 mg NRL-1049, fasting state, read-out: median time to maximum observed plasma concentration (Tmax)): 30 to 45 min | CL/F [1, 4]: 7420 L/h | Thalf [1, 4]: 0.52 h | CL/F [1, 5]: 5350 L/h | Thalf [1, 5]: 0.81 h | CL/F ([1]; plasma NRL-1049, mean, 150 mg NRL-1049 single oral, Fasted, Cohort 3, N = 6): 4820 L/h | CL/F [1, 6]: 3700 L/h | Thalf [1, 6]: 2.05 h | CL/F [1, 7]: 3370 L/h | Thalf [1, 7]: 1.03 h
